The values that follow come from article PMC8779255, “Determining the Anticancer Activity of Sphingosine Kinase Inhibitors Containing Heteroatoms in Their Tail Structure” (Pharmaceutics, 2022).

pIC50: −log10 of the molar value.

What is called pIC50 is the IC50 on a negative log10 scale, so that one unit is a factor of ten.

One data set concerns HCT116 cells. The data set can be described thus: MTT cell viability assay. Format: cell-based, human. Here is the method:
(§1) The HT29 and HCT116 cells (human colon cancer), AGS (human gastric cancer), and MIA PaCa-2 cells (human pancreatic cancer) were purchased from Korean Cell Line Bank (Seoul, Korea). Cancer cells were maintained in RPMI (HT29 and AGS) and DMEM (HCT116 and MIA PaCa-2) culture media supplemented with 10% fetal bovine serum (FBS) and 100 U/mL penicillin and streptomycin at 37 °C in a 95% humidified incubator containing 5% CO2. The cytotoxic effect of the compounds was assessed using the MTT cell viability assay. Briefly, 3 × 10^3 cells/well were grown in 96-well plates for 24 h. After treatment with desired concentration of respective compounds for 24 h or 48 h, the EZ-CYTOTOX (10 µM) reagent was added in each well and incubated for 90 min. The absorbance was measured at 450 nm wavelength using Skanlt software 5.0 (Thermo Scientific, Waltham, MA, USA) installed on a Multiskan GO (Thermo Scientific, Waltham, MA, USA) spectrophotometer. Each experiment was independently repeated three times (n = 12).
In general terms: Formazan colour is commonly taken as a measure of viable cells.

The subject of data set [1] is HT29 cells. Description: MTT cell viability assay. It counts as cell-based, human. The procedure:
as §1

A further data set addresses T1, SK1 enzyme (Homo sapiens, UniProt Q9NYA1).
T1 construct: purchased Thermo Fisher Scientific
The data set can be described thus: SK activity assay (Adapta screening system). The following applies: 20 μM, Figure 5A. Format: biochemical. The procedure:
(§2) The effect of compounds in sphingosine kinase activity was examined using the […] screening system (Thermo Fisher Scientific System, Waltham, MA, USA). The kinase inhibition ability of compounds 1-11 along with RB005 was measured with final concentration of 20 μM. […] The data were presented as percentage inhibition of SK enzyme by individual compounds.

For the next data set, the target named is T2, SK2 enzyme (Homo sapiens, UniProt Q9NRA0).
T2 construct: purchased Thermo Fisher Scientific
The data set can be described thus: SK activity assay (Adapta screening system). The conditions noted are these: 20 μM, Figure 5A. Format: biochemical. Here is the method:
as §2

The test system of the next data set is S1PR1. The arrangement: method as in PMID 27297359. The conditions noted are these: in Figure 1, no unit; cited from earlier work.
Another data set concerns S1PR2. More on the design: method as in PMID 27297359. The conditions noted are these: in Figure 1, no unit; cited from earlier work.
Another data set concerns S1PR3. More on the design: method as in PMID 27297359. The conditions noted are these: in Figure 1, no unit; cited from earlier work.
The subject of another data set is S1PR4. The arrangement: method as in PMID 27297359. The following applies: in Figure 1, no unit; cited from earlier work.
The next data set deals with S1PR5. The arrangement: method as in PMID 27297359. The conditions noted are these: in Figure 1, no unit; cited from earlier work.
Data set [2] has as its system HT29 cells. The data set can be described thus: Annexin V-FITC/PI staining, flow cytometry. It counts as cell-based, human. The following applies: HT29, 10 and/or 20 µM, 24 h. The procedure: After treating HT29 and HCT116 cells with compounds 10, 11, 13 and FTY720 according to the manufacturer’s instruction, the annexin V and PI staining technique was employed to determine apoptosis in the cells. Briefly, cells (2.5 × 10^5 cells/well) were seeded in 12-well plates and treated with 10 and/or 20 µM of compounds for 24 h. Cells were collected using trypsin-EDTA and stained with annexin V-FITC dye for 15 min at room temperature, followed by PI staining for 20 min and analyzed by flow cytometer (MACSQuant Analyzer 10; Miltenyi Biotec, Bergisch Gladbach, Germany). The data was analyzed using MACSQuantify^TM version 2.8 software (Miltenyi Biotec, Bergisch Gladbach, Germany) and presented as early apoptosis, late apoptosis, or combined apoptosis percentage. Each experiment was repeated three times independently (n = 6).

The next data set concerns the target T3, PP2A in HCT116 cells (Homo sapiens, UniProt P67775).
T3 construct: endogenous in cells; host or cells: HCT116
The data set can be described thus: PP2A activity assay (immunoprecipitation kit). It counts as cell-based. The conditions noted are these: HCT116, 24 h, 20 µM of compounds 10, 11 and 13; vs nontreated control cells. Here is the method: The activity of PP2A was measured by using the PP2A kit according to the manufacturer’s instruction. The cell lysate was incubated with anti PP2A, C subunit antibody, and protein A agarose slurry for 2 h at 4 °C. The phosphopeptide solution (60 µL) was mixed and incubated at 30 °C for 10 min in a shaker. After a brief centrifuge, a 25 µL sample was liquated in ½ volume microplate and 100 µL malachite green phosphate detection working solution was added. After color development, absorbance was taken at 650 nm in a Multiskan GO microplate reader. A phosphate standard curve was constructed using phosphate standard, and results were calculated using this standard curve. This experiment was repeated three times (n = 6).

The next data set deals with T4, CYP3A4 (Homo sapiens, UniProt P08684).
T4 construct: Human liver microsomes (0.25 mg/mL); from tissue; host or cells: human liver microsomes
Description: Inhibition of CYP enzymes activity, human liver microsomes. Format: in vitro ADME. The following applies: human liver microsomes 0.25 mg/mL, 10 μM, midazolam substrate.

Data set [3] is described as follows: In vitro metabolic stability in liver microsomes. Format: in vitro ADME, rat.
Data set [4] in a line: In vitro metabolic stability in liver microsomes. It counts as in vitro ADME, mouse. For orientation: Liver microsomes are vesicles of endoplasmic reticulum, rich in cytochrome P450 enzymes.
For a further data set, the system named is SK1. The following applies: known compounds, Figure 1; cited from earlier work.
The next data set relates to SK2. The following applies: known compounds, Figure 1; cited from earlier work.
The nature of data set [5]: In vitro metabolic stability in liver microsomes.
Description: Microsome incubation was measured in triplicate in a 1.5 mL Eppendorf tube with 0.1 M potassium phosphate buffer (pH 7.4). […] It has a final volume of 100 mL in the presence of an NADPH regeneration system. In the final incubation mixture, 0.5 mg/mL HLM, 0.1 M potassium phosphate buffer (pH 7.4), and NADPH regeneration system (1 mM NADPH, 10 mM MgCl2) were included. In the pre-incubation mixture, HLM was added, and the mixture was run in a shaking incubator at approximately 350 rpm and 37 °C for 5 min under a Thermomixer (Eppendorf, Hamburg, Germany). Reactions were initiated by the addition of 1 mM NADPH and then quenched by the addition of 40 μL of ice-cold acetonitrile containing 10 μM chlorpropamide (CPP) as an internal standard at 0 and 30 min. After quenching, centrifugation of the incubation mixture was performed at 15,000× g for 5 min at 4 °C. An aliquot of 2 µL of the supernatant was injected into the LC-MS/MS system. The LC-MS/MS system was Xcalibur version 1.1.1 (Thermo Fisher Scientific Inc., Waltham, MA, USA).
The target in another data set is T5, CYP1A2 (Homo sapiens, UniProt P05177).
T5 sequence (P05177 1-516): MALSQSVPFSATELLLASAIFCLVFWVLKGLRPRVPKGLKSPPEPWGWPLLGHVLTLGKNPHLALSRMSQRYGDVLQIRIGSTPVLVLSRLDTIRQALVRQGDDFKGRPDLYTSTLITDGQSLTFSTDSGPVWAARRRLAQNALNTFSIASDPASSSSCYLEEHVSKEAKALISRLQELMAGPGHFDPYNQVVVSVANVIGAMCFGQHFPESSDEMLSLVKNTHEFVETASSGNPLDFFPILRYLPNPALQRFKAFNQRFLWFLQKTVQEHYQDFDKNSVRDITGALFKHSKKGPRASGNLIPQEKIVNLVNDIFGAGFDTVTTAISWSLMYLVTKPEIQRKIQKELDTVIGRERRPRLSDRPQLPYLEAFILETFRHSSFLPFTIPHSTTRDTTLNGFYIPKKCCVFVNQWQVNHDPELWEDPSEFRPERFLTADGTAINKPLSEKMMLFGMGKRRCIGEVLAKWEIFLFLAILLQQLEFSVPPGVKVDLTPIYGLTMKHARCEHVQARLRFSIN
The data set can be described thus: Inhibition of CYP enzymes activity, human liver microsomes. The conditions noted are these: human liver microsomes 0.25 mg/mL, 10 μM, phenacetin substrate.

For a further data set, the target named is CYP2C9 (Homo sapiens, UniProt P11712). The description is as above. The conditions noted are these: human liver microsomes 0.25 mg/mL, 10 μM, diclofenac substrate.
The next data set has as its target CYP2C19 (Homo sapiens, UniProt P33261). The description is as above. The conditions noted are these: human liver microsomes 0.25 mg/mL, 10 μM, S-mephenytoin substrate.
The target of another data set is CYP2D6 (Homo sapiens, UniProt P10635). The data set is described as above. The following applies: human liver microsomes 0.25 mg/mL, 10 μM, dextromethorphan substrate.
Setting [6] is: % remaining after 30 min, NADPH.

T2 sequence (Q9NRA0 whole entry): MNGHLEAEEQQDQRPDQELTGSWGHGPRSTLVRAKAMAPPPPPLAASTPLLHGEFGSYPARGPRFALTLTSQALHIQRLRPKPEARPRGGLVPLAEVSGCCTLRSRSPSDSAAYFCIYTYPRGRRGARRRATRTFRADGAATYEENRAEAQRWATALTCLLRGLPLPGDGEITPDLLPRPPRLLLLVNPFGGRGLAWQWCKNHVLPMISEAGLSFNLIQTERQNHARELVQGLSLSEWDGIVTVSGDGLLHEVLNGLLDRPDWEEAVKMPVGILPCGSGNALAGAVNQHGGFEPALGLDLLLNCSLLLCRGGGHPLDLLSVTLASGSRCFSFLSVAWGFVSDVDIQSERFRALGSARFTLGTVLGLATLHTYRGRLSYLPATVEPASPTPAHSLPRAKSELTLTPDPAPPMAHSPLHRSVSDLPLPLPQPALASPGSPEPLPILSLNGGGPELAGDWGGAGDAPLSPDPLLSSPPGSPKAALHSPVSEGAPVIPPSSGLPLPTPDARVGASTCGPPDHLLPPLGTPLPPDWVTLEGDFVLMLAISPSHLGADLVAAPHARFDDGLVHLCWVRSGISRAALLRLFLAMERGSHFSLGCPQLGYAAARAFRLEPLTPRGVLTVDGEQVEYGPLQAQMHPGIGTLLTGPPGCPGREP
T3 sequence (P67775 whole entry): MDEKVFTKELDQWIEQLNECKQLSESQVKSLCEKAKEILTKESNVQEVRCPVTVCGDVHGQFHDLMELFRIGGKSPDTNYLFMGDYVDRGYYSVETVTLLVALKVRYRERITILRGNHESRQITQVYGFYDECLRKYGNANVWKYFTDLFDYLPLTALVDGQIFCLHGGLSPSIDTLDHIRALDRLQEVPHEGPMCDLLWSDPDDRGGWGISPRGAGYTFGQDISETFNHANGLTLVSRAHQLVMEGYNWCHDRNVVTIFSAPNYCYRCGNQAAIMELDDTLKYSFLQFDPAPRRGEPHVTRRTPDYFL
T1 sequence (Q9NYA1 whole entry): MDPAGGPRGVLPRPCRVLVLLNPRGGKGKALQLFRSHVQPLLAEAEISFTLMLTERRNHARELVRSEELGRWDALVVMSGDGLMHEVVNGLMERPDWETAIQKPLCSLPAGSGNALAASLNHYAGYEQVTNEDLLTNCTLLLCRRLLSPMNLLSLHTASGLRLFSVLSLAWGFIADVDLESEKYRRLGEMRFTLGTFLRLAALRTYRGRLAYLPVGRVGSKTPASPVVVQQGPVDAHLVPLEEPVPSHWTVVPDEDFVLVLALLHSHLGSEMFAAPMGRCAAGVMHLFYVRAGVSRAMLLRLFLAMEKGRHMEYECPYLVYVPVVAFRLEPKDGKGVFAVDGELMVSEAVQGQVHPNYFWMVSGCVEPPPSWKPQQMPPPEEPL
Chain of CYP2D6 (P10635 whole entry): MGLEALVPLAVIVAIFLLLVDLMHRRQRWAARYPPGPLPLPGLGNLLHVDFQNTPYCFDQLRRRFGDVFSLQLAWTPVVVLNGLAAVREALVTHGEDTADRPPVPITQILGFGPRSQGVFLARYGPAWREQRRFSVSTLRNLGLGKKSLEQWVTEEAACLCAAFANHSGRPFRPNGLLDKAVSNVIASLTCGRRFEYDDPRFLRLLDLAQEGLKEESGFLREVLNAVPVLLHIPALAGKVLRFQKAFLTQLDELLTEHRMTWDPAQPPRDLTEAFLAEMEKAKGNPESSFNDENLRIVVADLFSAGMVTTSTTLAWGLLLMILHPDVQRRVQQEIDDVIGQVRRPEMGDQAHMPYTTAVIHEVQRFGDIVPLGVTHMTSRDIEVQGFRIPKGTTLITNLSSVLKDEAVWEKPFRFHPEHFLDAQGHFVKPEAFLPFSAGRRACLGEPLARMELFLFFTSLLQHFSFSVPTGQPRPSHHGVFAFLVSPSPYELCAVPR
Chain of CYP2C9 (P11712 whole entry): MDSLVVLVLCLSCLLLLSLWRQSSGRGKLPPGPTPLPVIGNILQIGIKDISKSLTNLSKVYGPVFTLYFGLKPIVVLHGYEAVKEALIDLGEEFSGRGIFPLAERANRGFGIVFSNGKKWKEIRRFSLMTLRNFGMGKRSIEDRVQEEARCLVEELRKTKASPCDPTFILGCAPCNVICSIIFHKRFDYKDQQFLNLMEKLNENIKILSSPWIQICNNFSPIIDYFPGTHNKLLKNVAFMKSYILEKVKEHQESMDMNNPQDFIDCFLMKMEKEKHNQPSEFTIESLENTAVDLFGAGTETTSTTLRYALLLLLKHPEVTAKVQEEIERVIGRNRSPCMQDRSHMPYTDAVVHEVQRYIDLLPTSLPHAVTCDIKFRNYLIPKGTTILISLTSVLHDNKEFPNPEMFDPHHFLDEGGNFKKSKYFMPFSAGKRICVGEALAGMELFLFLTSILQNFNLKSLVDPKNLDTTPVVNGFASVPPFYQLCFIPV
T4 sequence (P08684 whole entry): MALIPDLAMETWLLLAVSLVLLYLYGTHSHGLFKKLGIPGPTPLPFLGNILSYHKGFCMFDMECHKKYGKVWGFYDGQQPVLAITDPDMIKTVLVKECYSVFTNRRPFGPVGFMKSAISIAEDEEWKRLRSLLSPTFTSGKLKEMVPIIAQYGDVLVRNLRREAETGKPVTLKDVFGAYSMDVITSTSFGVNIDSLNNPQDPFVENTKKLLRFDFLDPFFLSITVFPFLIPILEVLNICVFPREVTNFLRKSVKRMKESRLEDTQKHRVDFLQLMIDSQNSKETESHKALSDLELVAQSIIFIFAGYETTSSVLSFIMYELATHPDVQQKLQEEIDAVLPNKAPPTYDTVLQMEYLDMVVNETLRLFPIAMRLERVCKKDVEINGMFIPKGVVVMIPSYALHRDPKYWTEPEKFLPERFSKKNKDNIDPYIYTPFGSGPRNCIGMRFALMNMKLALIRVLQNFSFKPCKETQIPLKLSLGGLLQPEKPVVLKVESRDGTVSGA
Chain of CYP2C19 (P33261 whole entry): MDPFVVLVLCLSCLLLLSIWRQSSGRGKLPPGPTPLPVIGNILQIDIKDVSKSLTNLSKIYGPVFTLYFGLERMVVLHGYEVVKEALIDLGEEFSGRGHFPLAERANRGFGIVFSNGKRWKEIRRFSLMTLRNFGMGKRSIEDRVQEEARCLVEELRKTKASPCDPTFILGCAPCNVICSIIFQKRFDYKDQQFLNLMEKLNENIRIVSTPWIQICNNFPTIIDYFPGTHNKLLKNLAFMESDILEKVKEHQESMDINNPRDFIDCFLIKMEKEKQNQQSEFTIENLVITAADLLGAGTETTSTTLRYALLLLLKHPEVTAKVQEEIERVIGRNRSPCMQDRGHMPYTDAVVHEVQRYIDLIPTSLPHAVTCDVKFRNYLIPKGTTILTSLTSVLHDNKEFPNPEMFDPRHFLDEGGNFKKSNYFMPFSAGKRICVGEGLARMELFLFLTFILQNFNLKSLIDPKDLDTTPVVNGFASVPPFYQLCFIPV
Description for CYP1A2: (§3) Afterward, to terminate the reaction, an acetonitrile solution containing an internal standard (terfenadine) was added, centrifuged for 5 min (14,000 rpm, 4 °C), and the supernatant was injected into the LC-MS/MS system. By simultaneously analyzing metabolites, the ability of the six compounds to inhibit drug metabolism enzymes was evaluated.
(§4) Metabolites of each CYP coenzyme indicator drug generated through the above reaction were analyzed using the Shimadzu Nexera XR system and TSQ vantage (Thermo). The HPLC column was a Kinetex C18 column (2.1 × 100 mm^2, 2.6 μm particle size; Phenomenex, Torrance, CA, USA), and the mobile phase was distilled water (A) containing 0.1% formic acid and acetonitrile (B) containing 0.1% formic acid. […] The generated metabolites were quantified using MRM (Multiple Reaction Monitoring) quantification modes, and data were analyzed using Xcalibur (version 1.6.1).
Description for CYP2C19: (§5) By simultaneously analyzing metabolites, the ability of the six compounds to inhibit drug metabolism enzymes was evaluated.
as §4
Description for CYP2C9: as §5, §4
Description for CYP2D6: as §3, §4
Description for CYP3A4: as §5, §4

On to `CCCCCCCOc1ccc(CCN2CCC(O)CC2)cc1` [Compound 3, 1-(4-(Heptyloxy)phenethyl)piperidin-4-ol], for which the “cytotoxic effect (cell viability)” value was “only 40 µM concentration of compounds 3, 5 and 9 shows significant cytotoxic effect” in the data set with HCT116 cells (HCT116, 20 and 40 µM, 24 h, Figure 2B); “more cytotoxic than RB005 and 5-FU” in the data set on HT29 cells [1] (HT29, 20 and 40 µM, 24 h, Figure 2A). Also, the “SK1/2 inhibitory effect compared to RB005 (SK1)” value at SK1 enzyme is listed as “three times higher”. In addition, the “SK1/2 inhibitory effect compared to RB005 (SK2)” value at SK2 enzyme was “three times higher”.

As to `CC1=C(CN2CC(C(=O)O)C2)CCc2cc(OCCCCc3ccccc3)ccc21` [Compound W-061], the “Binding affinity, S1PR1” value in the data set on S1PR1 is 4.11. Further, the “Binding affinity, S1PR2” value in the data set on S1PR2 is listed as over 43800. In addition, in the data set on S1PR3, the “Binding affinity, S1PR3” value is 1710. The “Binding affinity, S1PR4” value with S1PR4 was 65.4. In the data set with S1PR5, the “Binding affinity, S1PR5” value is reported as 10.5.

Regarding `CCCCCCCCc1ccc(CCC(N)(CO)CO)cc1` [FTY720], the negative logarithm of the IC50 (pIC50) was 5.38 in the data set with HCT116 cells (Homo sapiens, HCT-116, HCT116, 48 h treatment, 2.5–40 µM, read-out: relative IC50 (cell viability)); 5.38 with HT29 cells [1] (Homo sapiens, HT-29, HT29, 48 h treatment, 2.5–40 µM, read-out: relative IC50 (cell viability)); 4.90 to 5.30 in the data set with SK1; 4.90 to 5.30 in the data set on SK2. Further, the “apoptosis (annexin V assay)” value in the data set on HT29 cells [2] is listed as “increased apoptosis”. In addition, the PP2A activity increase on PP2A in HCT116 cells stood at 1.65 fold. For the same molecule, the “CYP3A4 activity (% of control activity)” value at CYP3A4 was over 100%. The “liver microsomal stability, Rat (%)” value in [3] (setting [6]) is listed as 77.0%. Besides, the “liver microsomal stability (in words)” value in [3] (rat), in [4] (mouse) and in data set [5] (human) was “stable” in each case. Also, the “liver microsomal stability, Mouse (%)” value in [4] (setting [6]) is 89.9%. In addition, in data set [5] (% remaining after 30 min, 0.5 mg/mL microsomes, NADPH), the “liver microsomal stability, Human (%)” value is given as 90.5%. Besides, at CYP1A2, the “CYP1A2 activity (% of control activity)” value was 86.5%. Further, the “CYP2C9 activity (% of control activity)” value on CYP2C9 came to 96.8%. Besides, the “CYP2C19 activity (% of control activity)” value at CYP2C19 is 86.8%. Moreover, the “CYP2D6 activity (% of control activity)” value at CYP2D6 was 92.0%.
